Values quoted from earlier work, collected in patent publication US12115139B2, “Treatment methods and processes for an infected nail” (priority 2018, dated 2024).
Several values for one entry are separate records, joined by “and”; a condition that tells them apart may be missing. Equal entries are not always repeated. Structures can show the parent of a compound that is named as a salt.

System: nail infections
Details: for side effects compared with Lamisil: oral treatment

SMILES: C[C@@H](n1cnc2cc(Cl)ccc2c1=O)[C@](O)(Cn1cncn1)c1ccc(F)cc1F [Albaconazole]
- side effects compared with Lamisil: fewer side effects

SMILES: CCC(C)(C)c1ccc(CC(C)CN2C[C@@H](C)O[C@@H](C)C2)cc1 (stereo partly shown) [Amorolfine, amorolfine]
- effectiveness against severe nail infections (topical, severe nail infections involving the nail bed): not effective

SMILES: Cc1cc(C2CCCCC2)n(O)c(=O)c1 [Ciclopirox, ciclopirox]
- cure rate (topical, 8% strength): about 8.5%

SMILES: CN(C/C=C/C#CC(C)(C)C)Cc1cccc2ccccc12 [Lamisil, terbinafine hydrochloride]
- mycological cure rate (oral treatment of nail infections): 46%

SMILES: CC[C@@H]([C@H](C)O)n1ncn(-c2ccc(N3CCN(c4ccc(OC[C@@H]5CO[C@@](Cn6cncn6)(c6ccc(F)cc6F)C5)cc4)CC3)cc2)c1=O [Posaconazole]
- side effects compared with Lamisil: fewer side effects

SMILES: OB1OCc2cc(F)ccc21 [Tavaborole, tavaborole]
- complete cure (topical, share of the 600 patients in the study): 6%

SMILES: C=C1CCN([C@H](C)[C@](O)(Cn2cncn2)c2ccc(F)cc2F)CC1 [efinaconazole]
- cure rates (topical, only mild infections not involving the nail bed): 17.8% and 15.2%
